Reference: article PMC3150281, “Two Group A Streptococcal Peptide Pheromones Act through Opposing Rgg Regulators to Control Biofilm Development” (PLoS Pathogens, 2011)

What was measured:
Pshp3 luxAB reporter = assay: Luciferase reporter assay, Pshp3-luxAB, with synthetic peptides; type: cell-based, Streptococcus pyogenes NZ131; conditions: for Induction of luciferase activity at Pshp3 / Induction of luciferase at Pshp3 in wild-type bacteria: 50 nM peptide in CDM; for Induction of luciferase activity at Pshp3: crude peptide (31-50% pure), DMSO vehicle control, representative of at least three experiments; for Induction of luciferase at Pshp3 in wild-type bacteria: wild-type reporter strain JCC174 (mutated shp3 start codon); for Response at Pshp3 in Δrgg2 strain: Δrgg2 reporter strain JCC175
Experimental: (§1) Figure 3 SHP stimulation of luciferase production. For panels A and C, overnight GAS cultures were diluted into CDM and followed for growth and light production over time. For panels B and D-H, reporter strains were grown to log-phase (OD600 between 0.3 and 0.5) and then diluted 13-fold into conditioned (panel B) or fresh CDM containing 50 nM of the indicated peptide (panels D-H). For all synthetic peptide experiments, DMSO was included as a vehicle control. Data shown are representative of at least three independent experiments. (A) Expression of shp3 under its own promoter from a multi-copy plasmid (pSHP3) induces luciferase expression at both Pshp2 (triangles) and Pshp3 (squares); pLZ12-Sp is the vector-only control. (B) Luciferase-inducing activity is present in a cell-free culture supernatant prepared from mid-log phase Δrgg3 donor (JCC131) but not in wild-type (NZ131) or Δrgg3-shp3 (JCC132)-conditioned supernatants; Δrgg3-shp3 (JCC159) was used as the reporter strain, and fresh medium was included as a control. (C) Luciferase activity of a Δrgg3-shp3 strain (JCC168) expressing truncated versions of shp3 indicates the importance of the C-terminus. All truncation plasmids were derived from pSHP3; pSHP3_17-23 includes a methionine to initiate translation. (D) Synthetic full-length (sSHP3) and C-terminal eight amino acids (sSHP3-C8), but not reverse peptide (sSHP3-rev), induce luciferase activity in a Δrgg3-shp3 reporter strain (JCC168). (E) Amino acid substitutions within the C-terminus of SHP3 alter its reporter-inducing activity in a Δrgg3-shp3 reporter strain (JCC168). sSHP3-C8: DIIIIVGG; the sequences of synthetic peptides with amino acids substitutions are shown in the panel legend. […] Reverse peptide (sSHP2-C8-rev) was included as a control. (G) sSHP3-C8 induces a sustained response from the Pshp2 reporter in the wild-type strain (BNL148), while luciferase activity of a Δrgg3-shp3 strain (BNL150) wanes. (H) Synthetic C8 peptides stimulate modest luciferase activity in Δrgg2 strains with integrated Pshp2 (solid lines; BNL152) or Pshp3 (dotted lines; JCC175) reporters.
(§2) For luciferase assays, isolated colonies from the strains of interest were picked from a freshly streaked plate, inoculated into THY broth and grown overnight at 30°C. In the morning, cells were diluted 100-fold into CDM and incubated at 37°C. At each time point, 50 µL of each culture was removed to an opaque 96-well plate, samples were exposed to decyl aldehyde (Sigma) fumes for one minute, and counts per second (CPS) were quantified using a Wallac 1450 microbeta scintillation counter; the optical density (OD) at 600 nm was also measured at each time point. Relative light units (RLU) were calculated by normalizing CPS to OD. For the conditioned media experiment, strains of interest were grown in CDM to an OD of 0.3 to 0.5, cells were spun down, and supernatants were passed through a 0.22 µm filter; log-phase Δrgg3-shp3 reporter cells (JCC159) were diluted 1∶12 into conditioned supernatants, and light activity and OD were monitored as described above. For experiments with synthetic peptides, reporter strains were grown to an OD of 0.3 to 0.5 and then diluted into fresh CDM containing the peptide of interest, and light activity and OD were monitored as described above.
Synthetic peptides were purchased from Neo-Peptide (Cambridge, MA). Purities of crude preparations used in luciferase assays ranged from 31% to 50%. 95% pure preparations were used for electrophoretic mobility shift assays (EMSA) as described below. All peptides were reconstituted as 2 mM stocks in DMSO and stored in aliquots at -80°C. Subsequent dilutions for working stocks (50 µM) were made in DMSO and stored at −20°C.

[1] = test system: Rgg3 (Streptococcus pyogenes NZ131 (serotype M49)); assay: EMSA; conditions: 20 mM HEPES pH 7.9, 100 mM KCl, 12.5 mM MgCl2, 0.2 mM EDTA, 0.5 mM DTT, 0.5 mM CaCl2, 50 ug/mL salmon sperm DNA, 0.001 U/uL poly(dI-dC), 100 ug/mL BSA, 12% …
Rgg3-Pshp3 DNA complex = assay: EMSA, effect of peptide on Rgg3 binding to Pshp3 probe; design: species or system Streptococcus pyogenes NZ131; conditions: 2 µM pure (>95%) peptide added 20 min after 10 nM FAM probe; room temperature; native PAGE
Experimental: (§3) The NZ131 rgg3 gene (Spy 49_0449c) was amplified using gene-specific primers (rgg3_fwd_NdeI/rgg3_rev_BamHI) and cloned into a modified pET expression vector bearing N-terminal His-6 and SUMO tags; the resulting vector, pCA102, was electroporated into E. coli C41(DE3) before each purification. Expression of His6-sumo-rgg3 was induced at an OD600 of 0.8 with 0.5 mM IPTG for six hours at 30°C. Cells were pelleted and suspended in Buffer A (20 mM sodium phosphate buffer, pH 7.5; 1.5 mM MgCl2, 280 mM NaCl, 20 mM imidazole, 10 mM β-mercaptoethanol) with 0.1 mg mL^−1 lysozyme, 0.01 mg mL^−1 DNaseI (Sigma) and Complete EDTA-free protease inhibitor (Roche). Cells were disrupted by sonication on ice, and cellular debris was removed by centrifugation at 45,000 x g for 20 min at 4°C. His6-SUMO-Rgg3 was adsorbed to a HisTrap-HP Nickel column (GE Biosciences), then washed with 50 mM imidazole and eluted with 300 mM imidazole. The eluate was immediately exchanged into fresh Buffer A using a Zeba spin desalting column, 7K MWCO (Thermo Scientific). […]
(§4) All DNA fragments for EMSAs were amplified from chromosomal NZ131 DNA by PCR using primers described in Table S1, with select primers containing 5′-FAM fluorescent tags (Integrated DNA Technologies). […] All gel shifts were detected by fluorescence imaging using a Typhoon PhosphorImager (GE Life Sciences).

Pshp2 luxAB reporter = assay: Luciferase reporter assay, Pshp2-luxAB, with synthetic peptides; type: cell-based, Streptococcus pyogenes NZ131; conditions: for Induction of luciferase at Pshp2 in wild-type bacteria: wild-type reporter strain BNL148, 50 nM peptide in CDM; for Maximal induction at Pshp2 in Δrgg2 strain: Δrgg2 reporter strain BNL152
Experimental: as §1, §2
Synthetic peptides were purchased from Neo-Peptide (Cambridge, MA). Purities of crude preparations used in luciferase assays ranged from 31% to 50%. […]

Rgg3-Pshp2 DNA complex = assay: EMSA, effect of peptide on Rgg3 binding to Pshp2 probe; design: species or system Streptococcus pyogenes NZ131; conditions: 2 µM pure (>95%) peptide added 20 min after 10 nM FAM probe; room temperature; native PAGE
Experimental: as §3, §4

[2] = test system: GAS NZ131 biofilm biomass; assay: Biofilm assay, crystal violet staining; type: cell-based, Streptococcus pyogenes NZ131; conditions: 50 nM peptide
Experimental: Figure 6 Influence of Rgg regulators on biofilm production. SHPs can enhance biofilm biogenesis via the Rgg2/3 regulatory circuit and counter biofilm disassembly promoted by RopB. Crystal violet staining was performed to measure biofilm biomass of NZ131 derivatives grown 48 hours in 24-well polystyrene plates with (dark gray bars) or without (light gray bars) the addition of 50 nM sSHP3-C8. Levels of biofilm production were normalized to that of untreated NZ131 (wild type). Error bars indicate standard error from a minimum of three independent experiments.
Assays were performed as described by Manetti et al, with slight modifications. Briefly, each strain was grown overnight in THY at 30°C, diluted 1∶10 into fresh CDM, and 0.5 mL volumes were aliquoted to three separate wells of a 24-well polystyrene plate. When indicated, synthetic peptide was added to a final concentration of 50 nM. Plates where incubated at 37°C with 5% CO2 for 24 hours, then wells were washed with PBS and fresh CDM (containing peptide, if appropriate) was added. After an additional 24 hours of growth, each well was washed three times with PBS and stained with 0.2% crystal violet for 10 min. Excess crystal violet was aspirated off, and biofilms were washed three times with PBS. The biomass was then suspended in 1% SDS, and the absorbance at 540 nm was measured. Each strain was tested a minimum of three independent times on separate days, and each trial included NZ131 as the reference strain.

[3] = Δrgg3-shp3 reporter strain JCC168

Question: With “EIIIIVGG [sSHP3-C8 with aspartic acid substituted by glutamate]” as the substance, how does the “Induction of luciferase activity at Pshp3” value (Pshp3 luxAB reporter; [3]) read?
Answer: Its value is “retained full activity”.

Question: “-IIIIVGG [sSHP3-C8 without the N-terminal aspartic acid]” was tested. Which “Induction of luciferase activity at Pshp3” value (Pshp3 luxAB reporter; [3]) did it give?
Answer: The value was “complete loss of luciferase activity”.

Question: How did the “Induction of luciferase activity at Pshp3” value (Pshp3 luxAB reporter; [3]) turn out when “DIIIIVG- [sSHP3-C8 without the C-terminal glycine]” was run?
Answer: The value was “significantly decreased light activity”.

Question: Pshp3 probe was tested. Which K half [1] did it give?
Answer: The K half was 100 nM.

Question: “sSHP2-C8: synthetic C-terminal eight amino acids of SHP2 (DILIIVGG)” was tested. Which “Induction of luciferase at Pshp3 in wild-type bacteria” value (Pshp3 luxAB reporter) did it give?
Answer: The value was “stimulate induction and cross-induction”.

Question: And the “Response at Pshp3 in Δrgg2 strain” value (Pshp3 luxAB reporter; 50 nM peptide)?
Answer: Its value is “no response”.

Question: What about the “Disruption of Rgg3 binding to Pshp3 DNA” value (Rgg3-Pshp3 DNA complex) of the same substance?
Answer: Its value is “only induced a small amount of disruption”.

Question: What about the “Induction of luciferase at Pshp2 in wild-type bacteria” value (Pshp2 luxAB reporter) of the same substance?
Answer: The value was “stimulate induction and cross-induction”.

Question: What about the “Maximal induction at Pshp2 in Δrgg2 strain” value (Pshp2 luxAB reporter; 50 nM peptide) of the same substance?
Answer: Its value is 7 fold.

Question: And the “Disruption of Rgg3 binding to Pshp2 DNA” value (Rgg3-Pshp2 DNA complex)?
Answer: The value was “only induced a small amount of disruption”.

Question: “DIIIIVGG [sSHP3-C8, synthetic peptide containing the C-terminal eight amino acids of SHP3 (DIIIIVGG)]” was tested. Which “Induction of luciferase at Pshp3 in wild-type bacteria” value (Pshp3 luxAB reporter) did it give?
Answer: The value was “stimulate induction and cross-induction”.

Question: What about the “Response of Pshp3 reporter in ΔoppD mutant” value (Pshp3 luxAB reporter; ΔoppD reporter strain JCC163, 50 nM peptide, response restored by pOppD) of the same substance?
Answer: Its value is “fails to respond”.

Question: What about the “Response at Pshp3 in Δrgg2 strain” value (Pshp3 luxAB reporter; 50 nM peptide) of the same substance?
Answer: The value was “no response”.

Question: And the “Induction of luciferase activity at Pshp3” value (Pshp3 luxAB reporter; [3])?
Answer: Its value is “Luciferase induction was also observed”.

Question: And the “Reporter induction relative to sSHP3 at identical molar concentrations” value (Pshp3 luxAB reporter; Δrgg3-shp3 reporter strain JCC168, Pshp3, 50 nM peptide)?
Answer: The value was “more than 10 fold”.

Question: What about the “Disruption of Rgg3 binding to Pshp3 DNA” value (Rgg3-Pshp3 DNA complex) of the same substance?
Answer: Its value is “Rgg3-DNA complexes were disrupted”.

Question: What about the “Induction of luciferase at Pshp2 in wild-type bacteria” value (Pshp2 luxAB reporter) of the same substance?
Answer: The value was “stimulate induction and cross-induction”.

Question: And the “Maximal induction at Pshp2 in Δrgg2 strain” value (Pshp2 luxAB reporter; 50 nM peptide)?
Answer: The value was roughly 40 fold.

Question: And the “Luciferase activity at Pshp2 over time in Δrgg3-shp3 strain” value (Pshp2 luxAB reporter; Δrgg3-shp3 reporter strain BNL150, 50 nM peptide, compared with wild type BNL148)?
Answer: The value was “wanes”.

Question: What about the “Disruption of Rgg3 binding to Pshp2 DNA” value (Rgg3-Pshp2 DNA complex) of the same substance?
Answer: The value was “Rgg3-DNA complexes were disrupted”.

Question: What about the “Biofilm formation, wild-type NZ131” value ([2]; 48 hours in CDM, 24-well polystyrene plates, normalized to untreated NZ131, minimum of three experiments) of the same substance?
Answer: The value was “two-fold increase”.

Question: What about the “Biofilm production, ΔoppD mutant” value ([2]; ΔoppD (JCC135), 48 hours, crystal violet) of the same substance?
Answer: The value was “could not stimulate biofilms”.

Question: What about the “Biofilm production, Δrgg2 mutant” value ([2]; Δrgg2 (JCC137), 48 hours, crystal violet) of the same substance?
Answer: Its value is “could not stimulate biofilms”.

Question: What about the “Biofilm production, Δrgg3 mutant” value ([2]; Δrgg3 (JCC131), 48 hours, crystal violet) of the same substance?
Answer: The value was “did not further enhance biofilms”.

Question: And the “Biofilm production, Δrgg3-shp3 mutant” value ([2]; Δrgg3-shp3 (JCC132), 48 hours, crystal violet)?
Answer: The value was “partially complemented”.

Question: And the “Biofilm biomass, ΔropB strain” value ([2]; ΔropB (BNL146), 48 hours, crystal violet)?
Answer: Its value is “increased six-fold”.

Question: Which K half [1] does the source give for Pshp2 probe here?
Answer: Its K half is 100 nM.

Question: “NIIIIVGG [sSHP3-C8 with aspartic acid replaced by asparagine]” was tested. Which “Induction of luciferase activity at Pshp3” value (Pshp3 luxAB reporter; [3]) did it give?
Answer: The value was “decreased activity”.
